Data as given in PubChem BioAssay (NCI).
“And” between values parts separate entries of the source, which are not always exact repeats. Equal entries are not always repeated.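 Interpolation was linear, between the two tested concentrations surrounding the appropriate level; five concentrations were tested over 48 hours in 96-well plates. GI50 marks 50% less growth. TGI denotes the concentration required for complete inhibition of growth.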

What was measured:
Experiment in all cases: NCI tumour cell line growth inhibition, 48 h
UACC-62 melanoma = test system: UACC-62 melanoma
UO-31 renal = test system: UO-31 renal
SF-539 CNS = test system: SF-539 CNS
NCI-H460 lung = test system: NCI-H460 lung
IGROV1 ovarian = test system: IGROV1 ovarian
SN12C renal = test system: SN12C renal
M14 melanoma = test system: M14 melanoma
A549 NSCLC = test system: A549 NSCLC
BT-549 breast = test system: BT-549 breast
NCI-H522 lung = test system: NCI-H522 lung

## CC[C@H](C)[C@H](NC(=O)[C@H]1CCCCN1C)C(=O)N(C)[C@H](C[C@@H](OC(C)=O)c1cccc(C(=O)N[C@@H](Cc2ccccc2)C[C@H](C)C(=O)OC)n1)C(C)C
UACC-62 melanoma
  GI50: 0.000589 µM and 0.0025 µM
  TGI: > 25 µM
UO-31 renal
  TGI: > 25 µM
SF-539 CNS
  GI50: 0.00592 µM
  TGI: 0.0183 µM
NCI-H460 lung
  GI50: 0.0038 µM and 0.0025 µM
  TGI: > 25 µM
IGROV1 ovarian
  GI50: 0.000812 µM and 0.00506 µM
  TGI: > 25 µM
SN12C renal
  GI50: 0.00567 µM and 0.0113 µM
  TGI: > 25 µM
M14 melanoma
  GI50: 0.00227 µM
  TGI: 0.0128 µM
A549 NSCLC
  GI50: 0.0377 µM and 0.00974 µM
  TGI: > 25 µM
BT-549 breast
  GI50: 0.0025 µM
  TGI: 0.222 µM
NCI-H522 lung
  GI50: 0.00154 µM and 0.0025 µM
  TGI: 0.00894 µM

## Fc1ccc(-c2c(-c3ccncc3)nc3n2CCS3)cc1
UACC-62 melanoma
  GI50: > 25 µM
  TGI: > 25 µM
UO-31 renal
  GI50: > 25 µM
  TGI: > 25 µM
SF-539 CNS
  GI50: > 25 µM
  TGI: > 25 µM
NCI-H460 lung
  GI50: > 25 µM
  TGI: > 25 µM
IGROV1 ovarian
  GI50: > 25 µM
  TGI: > 25 µM
SN12C renal
  GI50: > 25 µM
  TGI: > 25 µM
M14 melanoma
  GI50: > 25 µM
  TGI: > 25 µM
A549 NSCLC
  GI50: > 25 µM
  TGI: > 25 µM
BT-549 breast
  GI50: > 25 µM
  TGI: > 25 µM
NCI-H522 lung
  GI50: > 25 µM
  TGI: > 25 µM

## O=C(NCCCCN1CCOCC1)c1cc2ccccc2o1
UACC-62 melanoma
  GI50: > 100 µM
  TGI: > 100 µM
UO-31 renal
  GI50: > 100 µM
  TGI: > 100 µM
SF-539 CNS
  GI50: > 100 µM
  TGI: > 100 µM
NCI-H460 lung
  GI50: > 100 µM
  TGI: > 100 µM
IGROV1 ovarian
  GI50: > 100 µM
  TGI: > 100 µM
SN12C renal
  GI50: > 100 µM
  TGI: > 100 µM
M14 melanoma
  GI50: > 100 µM
  TGI: > 100 µM
A549 NSCLC
  GI50: > 100 µM
  TGI: > 100 µM
BT-549 breast
  GI50: > 100 µM
  TGI: > 100 µM
NCI-H522 lung
  GI50: > 100 µM
  TGI: > 100 µM

## Cc1ccc(O)c(NC(=O)c2cccc(Nc3ccnc(C(F)(F)F)c3)c2)c1
UACC-62 melanoma
  GI50: 3.82 µM
  TGI: 20.7 µM
UO-31 renal
  GI50: 3.03 µM
  TGI: 18.1 µM
SF-539 CNS
  GI50: 12.5 µM
  TGI: 25.7 µM
NCI-H460 lung
  GI50: 10.4 µM
  TGI: 35.3 µM
IGROV1 ovarian
  GI50: 12.6 µM
  TGI: 28.1 µM
SN12C renal
  GI50: 5.81 µM
  TGI: 37.3 µM
M14 melanoma
  GI50: 7.55 µM
  TGI: 22.3 µM
A549 NSCLC
  GI50: 5.09 µM
  TGI: 28 µM
BT-549 breast
  GI50: 3.18 µM
  TGI: 21.6 µM
NCI-H522 lung
  GI50: 1.23 µM
  TGI: 5.84 µM

## Cc1onc(-c2ccccc2)c1C(=O)N/N=C/c1cc(Cl)cc(Cl)c1O
UACC-62 melanoma
  GI50: 2.16 µM
  TGI: 6.83 µM
UO-31 renal
  GI50: 1.83 µM
  TGI: 12.9 µM
SF-539 CNS
  GI50: 2.65 µM
  TGI: 11.6 µM
NCI-H460 lung
  GI50: 3.6 µM
  TGI: > 100 µM
IGROV1 ovarian
  GI50: 2.92 µM
  TGI: 21.7 µM
SN12C renal
  GI50: 4.58 µM
  TGI: 60.5 µM
M14 melanoma
  GI50: 3.74 µM
  TGI: 46.3 µM
A549 NSCLC
  GI50: 5.07 µM
  TGI: > 100 µM
BT-549 breast
  GI50: 12.1 µM
  TGI: 49.4 µM
NCI-H522 lung
  GI50: 3.67 µM
  TGI: 33.6 µM

## CC(=O)O[C@@H]1C2CCC3C(CC[C@@]4(C)C3CC[C@@H]4C(C)N(C)C)[C@@]2(C)CC[C@@H]1NC(=O)C=C(C)C (stereo partly specified)
UACC-62 melanoma
  GI50: 2.03 µM
  TGI: 3.96 µM
UO-31 renal
  GI50: 1.5 µM
  TGI: 3.33 µM
SF-539 CNS
  GI50: 1.34 µM
  TGI: 2.71 µM
NCI-H460 lung
  GI50: 1.67 µM
  TGI: 3.31 µM
IGROV1 ovarian
  GI50: 4.76 µM
  TGI: 16 µM
SN12C renal
  GI50: 3.2 µM
  TGI: 12.3 µM
M14 melanoma
  GI50: 1.85 µM
  TGI: 3.63 µM
A549 NSCLC
  GI50: 2.58 µM
  TGI: 6.27 µM
BT-549 breast
  GI50: 6.31 µM
  TGI: 22.5 µM
NCI-H522 lung
  GI50: 2.74 µM
  TGI: 8.58 µM

## COC(=O)[C@@H]1c2cc3c(c(O)c2[C@@H](OC2OC(C)C(OC)C(C)(OC)C2OC)C[C@]1(C)O)C(=O)c1c(O)cc2c(c1C3=O)O[C@H]1O[C@]2(C)[C@H](O)[C@@H](N(C)C)[C@@H]1O (stereo partly specified)
UACC-62 melanoma
  TGI: 0.0206 µM and 0.0277 µM
UO-31 renal
  GI50: 0.21 µM
  TGI: 0.983 µM and 1.17 µM
SF-539 CNS
  TGI: 0.16 µM and 0.0302 µM
NCI-H460 lung
  TGI: 0.0336 µM
IGROV1 ovarian
  TGI: 0.65 µM and 4.74 µM
SN12C renal
  TGI: 2 µM
M14 melanoma
  GI50: 0.0194 µM
  TGI: 0.14 µM and 0.107 µM
A549 NSCLC
  TGI: 10.3 µM
BT-549 breast
  TGI: 0.0588 µM
NCI-H522 lung
  TGI: 0.0638 µM and 0.0131 µM

## COc1ccc(/C=C\c2cc(OC)c(OC)c(OC)c2)cc1OCC(=O)Nc1nc2ccc(F)cc2s1
UACC-62 melanoma
  GI50: 4.05 µM
  TGI: > 100 µM
UO-31 renal
  GI50: 2.56 µM
  TGI: > 100 µM
SF-539 CNS
  GI50: 4.51 µM
  TGI: > 100 µM
NCI-H460 lung
  GI50: 4.31 µM
  TGI: > 100 µM
IGROV1 ovarian
  GI50: 4.17 µM
  TGI: > 100 µM
SN12C renal
  GI50: 4.61 µM
  TGI: > 100 µM
M14 melanoma
  GI50: 6.82 µM
  TGI: > 100 µM
A549 NSCLC
  GI50: 5.99 µM
  TGI: > 100 µM
BT-549 breast
  GI50: 16.7 µM
  TGI: > 100 µM
NCI-H522 lung
  GI50: 2.92 µM
  TGI: > 100 µM

## Oc1c(Cl)cc(Cl)c(Cl)c1CNCCNCc1c(O)c(Cl)cc(Cl)c1Cl
UACC-62 melanoma
  GI50: 0.917 µM
  TGI: 5.45 µM
UO-31 renal
  GI50: 0.625 µM
  TGI: 6.42 µM
SF-539 CNS
  GI50: 0.439 µM
  TGI: 5.32 µM
NCI-H460 lung
  GI50: 0.44 µM
  TGI: 7.52 µM
IGROV1 ovarian
  GI50: 0.951 µM
  TGI: 7.8 µM
SN12C renal
  GI50: 2.02 µM
  TGI: 17.9 µM
M14 melanoma
  GI50: 1.22 µM
  TGI: 26 µM
A549 NSCLC
  GI50: 1.11 µM
  TGI: 8.21 µM
BT-549 breast
  GI50: 2.67 µM
  TGI: 10 µM
NCI-H522 lung
  GI50: 1.28 µM
  TGI: 8.24 µM

## CC(C)(C)C(=O)OCOP(=O)(NCc1ccccc1)C1CCCN(O)C1=O (stereo unspecified)
UACC-62 melanoma
  GI50: 2.22 µM
  TGI: 6.49 µM
UO-31 renal
  GI50: 0.349 µM
  TGI: 2.99 µM
SF-539 CNS
  GI50: 3.2 µM
  TGI: 16.5 µM
NCI-H460 lung
  GI50: 1.75 µM
  TGI: 15.5 µM
IGROV1 ovarian
  GI50: 2.91 µM
  TGI: 9.59 µM
SN12C renal
  GI50: 0.752 µM
  TGI: 9.21 µM
M14 melanoma
  GI50: 2.91 µM
  TGI: 18.7 µM
A549 NSCLC
  GI50: 2.79 µM
  TGI: > 100 µM
BT-549 breast
  GI50: 5.81 µM
  TGI: 53.4 µM
NCI-H522 lung
  GI50: 1.78 µM
  TGI: 21.9 µM

## Cc1nc([N+](=O)[O-])cn1-c1nc2ccccn2c1[N+](=O)[O-]
UACC-62 melanoma
  TGI: > 100 µM
UO-31 renal
  TGI: > 100 µM
SF-539 CNS
  TGI: > 100 µM
NCI-H460 lung
  TGI: > 100 µM
IGROV1 ovarian
  TGI: > 100 µM
SN12C renal
  TGI: > 100 µM
M14 melanoma
  TGI: > 100 µM
A549 NSCLC
  TGI: > 100 µM
BT-549 breast
  TGI: > 100 µM
NCI-H522 lung
  TGI: > 100 µM

## Nc1nc(/C=C\c2ccc([N+](=O)[O-])s2)nc(N2CCN(c3ccccc3)CC2)n1
UACC-62 melanoma
  GI50: 13.6 µM
  TGI: 30.8 µM
UO-31 renal
  GI50: 18.7 µM
  TGI: 43.7 µM
SF-539 CNS
  GI50: 40.9 µM
  TGI: > 100 µM
NCI-H460 lung
  GI50: 24.1 µM
  TGI: 59.1 µM
IGROV1 ovarian
  GI50: 14.5 µM
  TGI: 34.7 µM
SN12C renal
  GI50: 14.3 µM
  TGI: 34.5 µM
M14 melanoma
  GI50: 19.5 µM
  TGI: 39.3 µM
A549 NSCLC
  GI50: 33.6 µM
  TGI: > 100 µM
BT-549 breast
  GI50: 21.8 µM
  TGI: 48 µM
NCI-H522 lung
  GI50: 16 µM
  TGI: 31.5 µM

## COC(COC(N)=O)C1=C(N2CC2)C(=O)C(C)=C(N2CC2)C1=O (stereo unspecified)
UACC-62 melanoma
  TGI: 0.173 µM
UO-31 renal
  TGI: 0.0796 µM
SF-539 CNS
  TGI: 0.202 µM
NCI-H460 lung
  TGI: 0.115 µM
IGROV1 ovarian
  TGI: 0.995 µM
SN12C renal
  TGI: 1.28 µM
M14 melanoma
  TGI: 0.147 µM
A549 NSCLC
  TGI: 2.21 µM
BT-549 breast
  TGI: 0.304 µM
NCI-H522 lung
  TGI: 0.156 µM
